Laboratory results from ChEMBL document CHEMBL3390834, “Development of second generation epigenetic agents” (Medchemcomm, 2012).
pIC50, pKd: −log10 of the molar value.

Legend:
[1] = target: NAD-dependent protein deacetylase sirtuin-1 (Homo sapiens, UniProt Q96EB6); experiment: Inhibition of recombinant human GST-tagged SIRT-1 using ZMAL as substrate after 4 hrs by homogeneous fluorescent deacetylase assay
Saccharomyces cerevisiae = experiment: Selectivity for yeast Hst1p over yeast Sir2p
[2] = target: T1, Histone-arginine methyltransferase CARM1 (Homo sapiens, UniProt Q86X55); experiment: Inhibition of CARM-1 (unknown origin) using Histone H3 Arg-17 as substrate
T1 sequence (Q86X55 whole entry): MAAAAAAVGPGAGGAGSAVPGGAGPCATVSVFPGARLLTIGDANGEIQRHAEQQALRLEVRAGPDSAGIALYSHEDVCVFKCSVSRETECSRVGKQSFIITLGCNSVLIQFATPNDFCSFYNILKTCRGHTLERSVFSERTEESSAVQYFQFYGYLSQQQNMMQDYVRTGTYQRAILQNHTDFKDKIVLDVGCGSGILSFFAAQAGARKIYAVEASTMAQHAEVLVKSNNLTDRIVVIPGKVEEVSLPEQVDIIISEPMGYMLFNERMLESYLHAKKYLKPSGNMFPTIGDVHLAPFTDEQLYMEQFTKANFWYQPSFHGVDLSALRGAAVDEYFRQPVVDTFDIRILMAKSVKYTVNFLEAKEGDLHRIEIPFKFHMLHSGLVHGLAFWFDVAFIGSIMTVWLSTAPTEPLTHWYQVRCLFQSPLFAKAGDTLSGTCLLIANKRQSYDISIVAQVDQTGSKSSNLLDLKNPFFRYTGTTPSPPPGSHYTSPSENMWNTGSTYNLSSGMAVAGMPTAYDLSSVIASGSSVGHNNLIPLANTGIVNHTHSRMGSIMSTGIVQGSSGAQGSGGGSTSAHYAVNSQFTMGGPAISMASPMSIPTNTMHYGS

[3] = target: T2, Lysine-specific demethylase 4E (Homo sapiens, UniProt B2RXH2)
T2 sequence (B2RXH2 whole entry): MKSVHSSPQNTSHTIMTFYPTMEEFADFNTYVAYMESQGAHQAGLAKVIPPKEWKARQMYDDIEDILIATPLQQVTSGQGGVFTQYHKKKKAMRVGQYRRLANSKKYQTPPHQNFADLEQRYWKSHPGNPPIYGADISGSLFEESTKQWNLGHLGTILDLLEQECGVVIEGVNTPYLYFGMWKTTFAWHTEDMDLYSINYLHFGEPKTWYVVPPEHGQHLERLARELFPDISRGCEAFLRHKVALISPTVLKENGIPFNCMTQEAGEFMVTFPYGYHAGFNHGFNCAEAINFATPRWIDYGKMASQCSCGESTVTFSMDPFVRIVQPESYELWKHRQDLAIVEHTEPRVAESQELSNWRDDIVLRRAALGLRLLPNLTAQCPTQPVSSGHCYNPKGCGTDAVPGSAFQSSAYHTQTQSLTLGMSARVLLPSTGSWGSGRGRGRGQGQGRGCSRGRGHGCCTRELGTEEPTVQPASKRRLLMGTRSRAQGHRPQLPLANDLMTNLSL
Description: Inhibition of N-terminal His-6-tagged human JMJD2E (1 to 337 residues) expressed in Escherichia coli by MALDI-TOF/MS analysis

[4] = Half life in C57BL/6J mouse at 10 mg/kg, po; format: ADME, organism-based; design: dose 10 mg/kg, route oral; settings: in vivo
[5] = target: T3, Lysine-specific histone demethylase 1A (Homo sapiens, UniProt O60341); experiment: Inhibition of N-terminal His-6-tagged full length human LSD-1 expressed in Escherichia coli BL21 (DE3) using H3K4me2 peptide as substrate at 1 uM by Western blotting analysis relative to control
[6] = target: T3, Lysine-specific histone demethylase 1A; experiment: Inhibition of human LSD-1 by fluorescence-based assay
[7] = target: Lysine-specific demethylase 4A (Homo sapiens, UniProt O75164); experiment: Inhibition of JMJD2A (unknown origin) using ARK(me3)STGGK peptide as substrate preincubated for 1 to 30 mins followed by substrate addition by MALDI-TOF/MS analysis
[8] = target: T4, Histone acetyltransferase p300 (Homo sapiens, UniProt Q09472); experiment: Binding affinity to p300 (unknown origin) by ITC analysis
[9] = target: T4, Histone acetyltransferase p300; experiment: Inhibition of recombinant full length p300 (unknown origin) expressed in baculovirus infected insect Sf21 cells using [3H]acetyl-CoA as substrate
[10] = Inhibition of DIM-5 (unknown origin)
[11] = target: T4, Histone acetyltransferase p300; experiment: Inhibition of recombinant p300 (unknown origin) expressed in baculovirus expression system using [3H]acetyl-CoA as substrate preincubated for 10 mins followed by substrate addition measured after 10 mins by liquid scintillation counting analysis
Histone deacetylase [12] = experiment: Inhibition of HDAC isolated from human HeLa cell nuclear extracts using Fluor de Lys as substrate after 30 mins by fluorescence assay; format: protein assay
Histone deacetylase [13] = experiment: Inhibition of HDAC in human HeLa cells assessed as histone H3 hyperacetylation after 7 hrs; format: cell-based
Histone deacetylase [14] = experiment: Inhibition of HDAC in human HeLa cells assessed as alpha-tubulin acetylation after 7 hrs; format: cell-based
[15] = target: T4, Histone acetyltransferase p300
Description: Inhibition of His6-tagged recombinant full length p300 (unknown origin) expressed in baculovirus infected insect Sf21 cells using [3H]acetyl-CoA as substrate preincubated for 10 mins followed by substrate addition measured after 10 mins by liquid scintillation counting analysis

[16] = target: Histone acetyltransferase KAT2A (Homo sapiens, UniProt Q92830); experiment: Inhibition of human GCN5
CREB-binding protein = CREB-binding protein (Homo sapiens, UniProt Q92793); experiment: Inhibition of CBP (unknown origin)
Egl nine homolog 1 = Egl nine homolog 1 (Homo sapiens, UniProt Q9GZT9); experiment: Inhibition of PHD-2 (unknown origin)
[17] = target: Lysine-specific demethylase 2A (Homo sapiens, UniProt Q9Y2K7); experiment: Inhibition of FBXL11 (unknown origin) expressed in HEK293 cells; format: cell-based
[18] = target: T2, Lysine-specific demethylase 4E; experiment: Binding affinity to JMJD2E (unknown origin)

T4 sequence (Q09472 whole entry): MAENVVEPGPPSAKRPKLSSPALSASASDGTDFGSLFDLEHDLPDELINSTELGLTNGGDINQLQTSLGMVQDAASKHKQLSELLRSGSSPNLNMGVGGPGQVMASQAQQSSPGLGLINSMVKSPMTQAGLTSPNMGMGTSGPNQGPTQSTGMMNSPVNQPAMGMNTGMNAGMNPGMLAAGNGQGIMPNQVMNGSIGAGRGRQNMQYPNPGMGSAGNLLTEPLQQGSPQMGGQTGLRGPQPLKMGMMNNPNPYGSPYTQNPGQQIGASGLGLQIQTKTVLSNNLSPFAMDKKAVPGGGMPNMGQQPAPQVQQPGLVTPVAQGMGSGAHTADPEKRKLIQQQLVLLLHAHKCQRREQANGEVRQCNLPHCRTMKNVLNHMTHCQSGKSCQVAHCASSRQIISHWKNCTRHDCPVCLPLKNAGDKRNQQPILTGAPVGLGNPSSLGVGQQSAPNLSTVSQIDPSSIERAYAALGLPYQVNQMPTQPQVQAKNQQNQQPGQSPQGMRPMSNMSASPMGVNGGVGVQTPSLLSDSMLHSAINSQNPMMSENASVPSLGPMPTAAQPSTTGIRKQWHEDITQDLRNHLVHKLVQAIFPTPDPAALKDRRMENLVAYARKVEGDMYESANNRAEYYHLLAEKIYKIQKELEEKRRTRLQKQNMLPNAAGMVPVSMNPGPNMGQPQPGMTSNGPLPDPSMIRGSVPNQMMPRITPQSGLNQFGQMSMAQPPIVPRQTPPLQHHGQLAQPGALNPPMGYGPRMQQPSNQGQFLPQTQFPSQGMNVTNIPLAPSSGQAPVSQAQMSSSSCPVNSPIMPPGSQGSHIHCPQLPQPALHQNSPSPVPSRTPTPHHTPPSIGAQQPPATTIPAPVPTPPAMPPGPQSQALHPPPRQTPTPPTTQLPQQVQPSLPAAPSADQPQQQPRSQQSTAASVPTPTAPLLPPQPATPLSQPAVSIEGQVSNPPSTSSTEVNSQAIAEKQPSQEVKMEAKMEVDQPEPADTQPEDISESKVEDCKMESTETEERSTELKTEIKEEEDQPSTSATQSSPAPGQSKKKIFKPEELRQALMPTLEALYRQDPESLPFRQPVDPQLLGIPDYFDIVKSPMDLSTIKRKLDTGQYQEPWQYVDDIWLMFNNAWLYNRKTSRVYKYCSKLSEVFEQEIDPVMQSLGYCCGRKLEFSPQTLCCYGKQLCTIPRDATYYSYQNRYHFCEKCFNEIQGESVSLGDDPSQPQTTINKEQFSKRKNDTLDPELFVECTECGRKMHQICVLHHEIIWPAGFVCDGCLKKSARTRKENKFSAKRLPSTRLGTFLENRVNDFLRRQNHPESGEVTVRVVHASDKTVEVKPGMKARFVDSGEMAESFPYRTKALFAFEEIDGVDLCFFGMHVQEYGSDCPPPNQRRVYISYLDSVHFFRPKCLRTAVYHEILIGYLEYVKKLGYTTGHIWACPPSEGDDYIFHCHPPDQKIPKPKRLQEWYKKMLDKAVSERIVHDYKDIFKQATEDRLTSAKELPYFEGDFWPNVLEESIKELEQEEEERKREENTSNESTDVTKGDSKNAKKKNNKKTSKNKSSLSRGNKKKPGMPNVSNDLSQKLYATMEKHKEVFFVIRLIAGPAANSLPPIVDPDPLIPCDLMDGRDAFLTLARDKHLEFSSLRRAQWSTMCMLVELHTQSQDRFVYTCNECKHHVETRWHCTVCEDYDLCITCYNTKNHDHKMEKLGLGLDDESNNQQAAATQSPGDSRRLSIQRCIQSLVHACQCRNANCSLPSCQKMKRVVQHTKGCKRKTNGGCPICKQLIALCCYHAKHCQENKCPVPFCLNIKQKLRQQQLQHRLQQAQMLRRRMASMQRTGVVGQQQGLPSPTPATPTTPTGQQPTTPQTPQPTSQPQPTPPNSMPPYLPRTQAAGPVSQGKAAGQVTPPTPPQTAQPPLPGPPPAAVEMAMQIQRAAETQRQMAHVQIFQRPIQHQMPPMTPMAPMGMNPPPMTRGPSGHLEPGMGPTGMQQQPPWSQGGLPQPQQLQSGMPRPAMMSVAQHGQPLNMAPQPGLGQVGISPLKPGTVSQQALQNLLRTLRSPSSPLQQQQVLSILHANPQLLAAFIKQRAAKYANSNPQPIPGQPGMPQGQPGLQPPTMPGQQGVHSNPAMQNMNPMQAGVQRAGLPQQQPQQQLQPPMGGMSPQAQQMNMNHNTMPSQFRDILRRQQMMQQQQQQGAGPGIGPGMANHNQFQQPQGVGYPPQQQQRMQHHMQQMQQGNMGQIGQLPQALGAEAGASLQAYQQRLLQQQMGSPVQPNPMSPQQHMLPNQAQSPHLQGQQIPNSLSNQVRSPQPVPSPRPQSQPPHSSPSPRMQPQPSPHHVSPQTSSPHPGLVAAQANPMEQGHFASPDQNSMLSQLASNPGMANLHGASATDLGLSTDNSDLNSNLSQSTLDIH
Chain of CREB-binding protein (Q92793 whole entry): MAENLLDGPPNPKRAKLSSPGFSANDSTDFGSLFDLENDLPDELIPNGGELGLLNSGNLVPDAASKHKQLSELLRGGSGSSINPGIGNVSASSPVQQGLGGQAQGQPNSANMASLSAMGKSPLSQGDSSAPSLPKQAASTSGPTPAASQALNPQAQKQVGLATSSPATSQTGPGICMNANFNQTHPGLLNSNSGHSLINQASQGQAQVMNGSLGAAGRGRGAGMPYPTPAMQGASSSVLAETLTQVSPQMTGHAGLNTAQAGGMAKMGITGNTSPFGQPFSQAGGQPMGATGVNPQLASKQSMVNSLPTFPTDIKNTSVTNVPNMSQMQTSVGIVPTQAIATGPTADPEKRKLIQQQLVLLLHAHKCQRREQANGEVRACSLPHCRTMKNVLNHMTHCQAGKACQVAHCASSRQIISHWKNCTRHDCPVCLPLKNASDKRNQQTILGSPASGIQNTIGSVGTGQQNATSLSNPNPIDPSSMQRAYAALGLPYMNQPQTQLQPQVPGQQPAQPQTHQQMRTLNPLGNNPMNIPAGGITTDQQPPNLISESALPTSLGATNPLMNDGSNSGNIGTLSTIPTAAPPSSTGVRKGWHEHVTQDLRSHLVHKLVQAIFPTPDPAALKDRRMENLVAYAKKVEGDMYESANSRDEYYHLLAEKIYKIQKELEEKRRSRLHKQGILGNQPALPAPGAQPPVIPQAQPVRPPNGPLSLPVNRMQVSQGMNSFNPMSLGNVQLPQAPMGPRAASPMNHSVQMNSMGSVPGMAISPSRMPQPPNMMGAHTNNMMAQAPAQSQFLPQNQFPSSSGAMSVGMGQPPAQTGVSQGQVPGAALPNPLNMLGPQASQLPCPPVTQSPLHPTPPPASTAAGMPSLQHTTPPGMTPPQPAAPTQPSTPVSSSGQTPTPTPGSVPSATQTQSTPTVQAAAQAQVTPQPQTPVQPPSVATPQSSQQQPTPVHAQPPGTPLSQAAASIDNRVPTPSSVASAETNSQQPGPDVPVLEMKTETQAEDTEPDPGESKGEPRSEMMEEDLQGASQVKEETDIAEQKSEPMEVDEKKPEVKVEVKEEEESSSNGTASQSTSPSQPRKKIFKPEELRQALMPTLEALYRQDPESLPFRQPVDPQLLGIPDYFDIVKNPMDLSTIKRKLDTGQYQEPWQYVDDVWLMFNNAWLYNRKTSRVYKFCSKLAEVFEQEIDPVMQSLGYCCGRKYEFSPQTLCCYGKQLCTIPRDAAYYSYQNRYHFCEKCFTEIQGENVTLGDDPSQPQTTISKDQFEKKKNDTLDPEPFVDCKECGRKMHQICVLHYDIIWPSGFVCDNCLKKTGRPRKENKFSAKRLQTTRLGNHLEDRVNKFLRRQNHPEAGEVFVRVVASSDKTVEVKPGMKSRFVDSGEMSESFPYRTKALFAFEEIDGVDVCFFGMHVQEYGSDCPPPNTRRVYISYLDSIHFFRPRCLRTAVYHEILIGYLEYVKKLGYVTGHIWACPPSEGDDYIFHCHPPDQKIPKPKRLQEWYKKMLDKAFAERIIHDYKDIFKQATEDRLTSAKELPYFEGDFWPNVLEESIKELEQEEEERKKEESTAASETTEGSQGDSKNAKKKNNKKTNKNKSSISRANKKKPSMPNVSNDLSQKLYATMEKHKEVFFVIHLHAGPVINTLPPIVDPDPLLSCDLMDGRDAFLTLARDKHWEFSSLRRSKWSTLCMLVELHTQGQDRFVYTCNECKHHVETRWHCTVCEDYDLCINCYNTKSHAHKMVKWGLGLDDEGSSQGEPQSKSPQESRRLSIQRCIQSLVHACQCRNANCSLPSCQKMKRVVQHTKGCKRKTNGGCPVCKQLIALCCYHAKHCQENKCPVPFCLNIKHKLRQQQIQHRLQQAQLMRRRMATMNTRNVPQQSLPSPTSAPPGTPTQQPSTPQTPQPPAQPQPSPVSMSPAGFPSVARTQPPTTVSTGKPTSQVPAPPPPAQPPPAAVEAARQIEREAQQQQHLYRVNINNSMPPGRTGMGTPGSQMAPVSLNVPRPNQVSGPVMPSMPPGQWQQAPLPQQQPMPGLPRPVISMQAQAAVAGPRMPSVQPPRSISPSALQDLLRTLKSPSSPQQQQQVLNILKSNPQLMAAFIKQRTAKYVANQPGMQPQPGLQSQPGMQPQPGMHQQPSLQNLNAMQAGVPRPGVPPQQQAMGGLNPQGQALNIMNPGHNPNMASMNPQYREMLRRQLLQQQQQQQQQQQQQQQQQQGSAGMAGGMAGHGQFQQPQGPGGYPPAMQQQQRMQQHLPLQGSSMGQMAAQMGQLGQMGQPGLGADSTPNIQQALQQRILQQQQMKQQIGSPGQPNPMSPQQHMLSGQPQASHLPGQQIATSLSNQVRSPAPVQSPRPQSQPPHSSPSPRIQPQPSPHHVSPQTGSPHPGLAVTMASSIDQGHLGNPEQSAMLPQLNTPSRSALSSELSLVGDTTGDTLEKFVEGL

For `O=C1NC(=S)NC(=O)C1=Cc1cc2ccccc2[nH]1`, the pIC50 [1] was 5.23.

For `O=c1ccc2c(ccc3ccccc32)o1`, the Selectivity ratio (Saccharomyces cerevisiae) was 5.

Compound `O=c1oc2c(O)c(O)cc3c(=O)oc4c(O)c(O)cc1c4c23` [ELLAGIC ACID] has a pIC50 [2] of 4.60.

In the case of `Oc1ccc(C2CNCCc3c2cc(O)c(O)c3Cl)cc1` (centres undefined) [FENOLDOPAM], the pIC50 [3] was 5.52.

With `NC(=O)C1CCCc2c1[nH]c1ccc(Cl)cc21` (centres undefined) the half-life [4] was 2 h.

With `N=C(NCCCNCCCCCCCNCCCNC(=N)NC(=N)NCCC(c1ccccc1)c1ccccc1)NC(=N)NCCC(c1ccccc1)c1ccccc1` the inhibition [5] was > 50%.

For `C[C@](N)(Cc1ccc(O)c(O)c1)C(=O)O` [METHYLDOPA], the pIC50 [3] was 5.52.

Work on `O=C(O)/C=C/C(=O)N(O)CCCCNCc1ccc(COC(=O)Nc2cccc3ccccc23)cc1` yielded a pIC50 [6] of 3.21.

Work on `CCNC(=S)SSC(=S)NCC` yielded a pIC50 [7] of 4.82.

With `CC1=CC(=O)c2c(O)cccc2C1=O` [PLUMBAGIN] the pKd [8] was 5.70 and the pIC50 [9] was 5.70.

`CN1C(=O)[C@@]23C[C@]4([C@]56C[C@@]78SS[C@@](CO)(C(=O)N7[C@H]5Nc5ccccc56)N(C)C8=O)c5ccccc5N[C@@H]4N2C(=O)[C@]1(CO)SS3` [CHAETOCIN] showed a pIC50 [10] of 5.52.

`COc1cc(C(=O)C2=C3OC(C)(C)[C@@H](CC=C(C)C)C[C@@]34C[C@@H](CC=C(C)C)C(C)(C)[C@@](CC=C(C)C)(C2=O)C4=O)ccc1O` showed a pIC50 [11] of 5.30.

In the case of `CC(=O)SCC(=O)c1ccc(NS(=O)(=O)c2ccc(OCCCN(C)C)cc2)nc1`, the IC50 (Histone deacetylase [12]) was 0.045 µM, the EC50 (Histone deacetylase [13]) was 0.025 µM and the EC50 (Histone deacetylase [14]) was 0.325 µM.

Work on `NCCc1ccc(O)c(O)c1` [DOPAMINE] yielded a pIC50 [3] of 5.52.

For `C=C(C)[C@@H](CC=C(C)C)C[C@@]12C[C@@H](CC=C(C)C)C(C)(C)[C@@](CC=C(C)C)(C(=O)C(C(=O)c3ccc(O)c(O)c3)=C1O)C2=O` [GARCINOL], the pIC50 [15] was 5.15.

Work on `C=C1C(=O)O[C@@H](CCC)[C@@H]1C(=O)O` yielded a pIC50 [16] of 4.00 and a pIC50 (CREB-binding protein) of 3.30.

Compound `O=C(CSSCC(=O)c1ccc(Br)cc1)c1ccc(Br)cc1` has an IC50 (Histone deacetylase [12]) of 0.135 µM.

`[N-]=[N+]=Nc1ccc(C(=O)N[C@@H](CCCCNC(=O)COCCOCCNC(=O)CCCC[C@@H]2SC[C@@H]3NC(=O)N[C@@H]32)C(=O)NCCCNC(=O)c2ccc(O)c3ncccc23)cc1` gave a pIC50 (Egl nine homolog 1) of 4.38, a pIC50 [17] of 5.04 and a pKd [18] of 4.23.
